Assay results published in patent US20240131180A1, “DRUG ANTIBODY CONJUGATES” (PHARMA MAR, S.A., priority 2020, published 2024).
“And” between values parts separate entries of the source, which are not always exact repeats. Equal values may be shown once. Read-outs that look alike come from different tables or passages of the source.

How the values were obtained:
[1] = tested on: MCF-7; test: SRB cytotoxicity assay, MCF-7 (HER2-); type: cell-based; settings: Homo sapiens, MCF7, 72 h, read-out: IC50 MCF-7
Method: (§1) For SK-BR-3, HCC-1954, MDA-MB-231 and MCF-7 cells, a colorimetric assay using Sulforhodamine B (SRB) was adapted for quantitative measurement of cell growth and cytotoxicity, as described in V. Vichai and K. Kirtikara. Sulforhodamine B colorimetric assay for cytotoxicity screening. Nature Protocols, 2006, 1, 1112-1116. Briefly, cells were seeded in 96-well microtiter plates and allowed to stand for 24 hours in drug-free medium before treatment with vehicle alone or with the tested substances for 72 hours.
(§2) Cell survival was expressed as percentage of control, untreated cell survival.

[2] = tested on: HCC-1954; test: SRB cytotoxicity assay, HCC-1954 (HER2+); type: cell-based; settings: Homo sapiens, HCC1954, 72 h, read-out: IC50 HCC-1954
Method: as §1, §2

[3] = tested on: SK-BR-3, HCC-1954, MDA-MB-231 and MCF-7 cells; test: cells; type: cell-based; settings: Homo sapiens, 72 h
Method: as §1, §2

[4] = tested on: SK-BR-3; test: SRB cytotoxicity assay, SK-BR-3 (HER2+); type: cell-based; settings: Homo sapiens, SK-BR-3, 72 h, read-out: IC50 SK-BR-3
Method: as §1, §2

[5] = tested on: MDA-MB-231; test: SRB colorimetric assay of cell growth and viability, MDA-MB-231; type: cell-based; settings: for LC50 / GI50: Homo sapiens; for LC50: MDA-MB-231, 72 h, read-out: LC50 MDA-MB-231; for GI50: MDA-MB-231, NCI algorithm; for GI50 / TGI MDA-MB-231: 72 hours treatment, SRB; for TGI MDA-MB-231: total cell growth inhibition
Description: (§3) Using the mean±SD of triplicate cultures, a dose-response curve was automatically generated using nonlinear regression analysis.

[6] = tested on: MDA-MB-231; test: SRB cytotoxicity assay, MDA-MB-231 (HER2-); type: cell-based; settings: Homo sapiens, MDA-MB-231, 72 h, read-out: IC50 MDA-MB-231
Method: as §1, §2

[7] = tested on: HT29; test: SRB colorimetric assay of cell growth and viability, HT29; type: cell-based; settings: for CC50 / GI50: Homo sapiens; for CC50: HT-29, 72 h, read-out: LC50 HT29; for GI50: HT-29, NCI algorithm; for GI50 / TGI HT29: 72 hours treatment, SRB; for TGI HT29: total cell growth inhibition
Description: as §3

[8] = tested on: A549; test: SRB colorimetric assay of cell growth and viability, A549; type: cell-based; settings: for CC50 / GI50: Homo sapiens; for CC50: A549, 72 h, read-out: LC50 A549; for GI50: A549, NCI algorithm; for GI50 / TGI A549: 72 hours treatment, SRB; for TGI A549: total cell growth inhibition
Description: as §3

[9] = tested on: PSN1; test: SRB colorimetric assay of cell growth and viability, PSN1; type: cell-based; settings: for LC50 / GI50: Homo sapiens; for LC50: PSN1, 72 h, read-out: LC50 PSN1; for GI50: PSN1, NCI algorithm; for GI50 / TGI PSN1: 72 hours treatment, SRB; for TGI PSN1: total cell growth inhibition
Description: as §3

[10] = tested on: Lewis lung carcinoma; settings: very low concentrations; cited from earlier work
[11] = tested on: P388 lymphoma; settings: very low concentrations; cited from earlier work
[12] = tested on: B16 melanoma; settings: very low concentrations; cited from earlier work
[13] = read-out: geometric mean IC50 value across the whole cell panel

| Structure (SMILES) | LC50 [5] [nM] | GI50 [5] [nM] | TGI MDA-MB-231 [5] [Molar] | CC50 [7] [nM] | GI50 [7] [nM] | TGI HT29 [7] [Molar] | CC50 [8] [nM] | GI50 [8] [nM] | TGI A549 [8] [Molar] | LC50 [9] [nM] | GI50 [9] [nM] | TGI PSN1 [9] [Molar] | further results |
| --- | --- | --- | --- | --- | --- | --- | --- | --- | --- | --- | --- | --- | --- |
| COc1ccc2[nH]c3c(c2c1)CCN[C@]31CS[C@@H]2c3c(OC(C)=O)c(C)c4c(c3[C@H](COC1=O)N1[C@@H]2[C@@H]2N[C@@H](Cc3cc(C)c(OC)c(O)c32)[C@@H]1O)OCO4 [Compound 1] | 2.46 | 0.752 | 1.30E−09 | > 130 | 1.28 | 1.43E−09 | 7.78 | 1.82 | 3.37E−09 | 2.34 | 1.22 | 1.69E−09 | IC50 [1]: 0.0012 µg/mL and 1.56 nM; IC50 [2]: 0.0015 µg/mL and 1.95 nM; IC50 ([3]; read-out: IC50 values in all the tumor cell lines (range)): 0.882 to 1.95 nM; IC50 [3, 13]: 1.32 nM; IC50 [4]: 0.00086 µg/mL and 1.12 nM; IC50 [6]: 0.00068 µg/mL and 0.882 nM |
| COc1c(C)cc2c(c1O)[C@H]1N[C@@H](C2)[C@H](O)N2[C@H]1[C@@H]1SC[C@]3(NCCc4c3oc3ccccc43)C(=O)OC[C@H]2c2c3c(c(C)c(OC(C)=O)c21)OCO3 [Compound 15] | 24.3 | 7.14 | 1.16E−08 | > 135 | 8.76 | 9.57E−09 | > 135 | 12.1 | 2.56E−08 | 45.8 | 9.98 | 1.48E−08 | – |
| COc1c(C)cc2c(c1O)[C@H]1N[C@@H](C2)[C@H](C#N)N2[C@H]1[C@@H]1SC[C@]3(NCCc4c3oc3ccccc43)C(=O)OC[C@H]2c2c3c(c(C)c(OC(C)=O)c21)OCO3 [Compound 14] | 29.3 | 6.66 | 1.13E−08 | > 133 | 8.52 | 9.19E−09 | > 133 | 8.79 | 1.73E−08 | 22.6 | 9.72 | 1.33E−08 | – |
| COc1ccc2[nH]c3c(c2c1)CCN[C@]31CS[C@@H]2c3c(OC(C)=O)c(C)c4c(c3[C@H](COC1=O)N1[C@@H]2[C@@H]2N[C@@H](Cc3cc(C)c(OC)c(O)c32)[C@@H]1C#N)OCO4 [Compound 2] | 5.77 | 5 | 5.26E−09 | ≥ 1280 | 5.13 | 5.64E−09 | > 1280 | 12.8 | 1.28E−08 | 5 | 2.05 | 3.08E−09 | IC50 [1]: 0.0017 µg/mL and 2.18 nM; IC50 [2]: 0.0018 µg/mL and 2.31 nM; IC50 [3, 13]: 1.53 nM; IC50 [4]: 0.00096 µg/mL and 1.23 nM; IC50 [6]: 0.00069 µg/mL and 0.885 nM |
| COc1c(C)cc2c(c1O)[C@H]1N[C@@H](C2)[C@H](O)N2[C@H]1[C@@H]1SC[C@]3(NCCc4c3[nH]c3ccccc43)C(=O)OC[C@H]2c2c3c(c(C)c(OC(C)=O)c21)OCO3 [ET-722, Ecteinascidin 722] | 2.56 | 0.891 | 1.48E−09 | > 135 | 1.35 | 1.48E−09 | > 135 | 1.35 | 1.35E−09 | 3.1 | 1.48 | 2.16E−09 | protection of mice in vivo against Lewis lung carcinoma [10]: protects mice in vivo at very low concentrations; protection of mice in vivo against P388 lymphoma [11]: protects mice in vivo at very low concentrations; protection of mice in vivo against B16 melanoma [12]: protects mice in vivo at very low concentrations |
| COc1ccc2[nH]c3c(c2c1)C[C@H](CO)N[C@]31CS[C@@H]2c3c(OC(C)=O)c(C)c4c(c3[C@H](COC1=O)N1[C@@H]2[C@@H]2N[C@@H](Cc3cc(C)c(OC)c(O)c32)[C@@H]1O)OCO4 [Compound 11-R] | 7.24 | 1.62 | 2.87E−09 | > 125 | 2 | 3.62E−09 | > 125 | 15 | 4.50E−08 | 15 | 2.12 | 3.62E−09 | – |
| COc1ccc2[nH]c3c(c2c1)C[C@H](CO)N[C@]31CS[C@@H]2c3c(OC(C)=O)c(C)c4c(c3[C@H](COC1=O)N1[C@@H]2[C@@H]2N[C@@H](Cc3cc(C)c(OC)c(O)c32)[C@@H]1C#N)OCO4 [Compound 10-R] | 3.09 | 0.679 | 1.21E−09 | > 123 | 0.864 | 1.61E−09 | > 123 | 4.32 | 1.20E−08 | > 123 | 0.753 | 1.48E−09 | – |
